The text below walks through data of patent publication US8557795B2, “Composition containing Chamaecyparis obtusa polysaccharides to be externally applied to the skin” (Amorepacific Corporation, priority 2009, dated 2013).

The test system of assay [1] is TPA-induced mouse ear inflammation. The experiment in a line: TPA-induced mouse ear inflammation model. It is filed as in vivo, ICR mice. The conditions noted are these: 24 hours after TPA, polysaccharide 0.5% in 80% ethanol, indomethacin 0.5 mg/ear. Here is the method:
The tetradecanoyl phorbol acetate (TPA)-induced mouse ear inflammation model is an experimental method which is widely used to test the mechanism of action of inflammatory responses and the effect of inhibitors (De Young L M et al., Agents and Actions, 26; 335-341 (1989)). In order to confirm the inflammation inhibitory effect of the Chamaecyparis obtusa polysaccharide, 8-week-old male ICR mice (8 animals per group) were prepared. The test group was treated with TPA and applied with a solution of the Chamaecyparis obtusa polysaccharide dispersed in a 80% ethanol aqueous solution, the untreated group was applied with a 80% ethanol aqueous solution alone without treatment with TPA, the negative control group was treated with TPA and applied with a 80% ethanol aqueous solution alone, and the positive control group was treated with TPA and applied with 0.5 mg of indomethacine (Sigma, USA) in place of the Chamaecyparis obtusa polysaccharide. […] The mice of the untreated group, the negative control group and the positive control group were also treated as described above. At 24 hours after application of TPA, the mice were euthanized by cervical dislocation, and the left ear was sampled in a given area, and the weight thereof was measured. […] The inhibition (%) is calculated according to the following equation 4. […]

A further assay relates to human keratinocytes. Nature of the assay: Induction of differentiation of human keratinocytes (cornified envelop amount). It is filed as cell-based. The conditions noted are these: Ca^2+ 1.2 mM (positive control); relative to 100 for low calcium (0.03 mM) control. Here is the method:
The effect of the Chamaecyparis obtusa polysaccharide of the present invention on the promotion of cell differentiation was examined by measuring the amount of CE (cornified envelop) produced during differentiation of keratinocytes and a human keratinocyte cell line (HaCaT).
Primarily cultured human keratinocytes were placed in a culture flask and allowed to adhere to the bottom of the flask, and then calcium and the Chamaecyparis obtusa polysaccharide were added to the culture media at varying concentrations. The cells were cultured for 5 days to a confluency of about 70-80%. The cultured cells were harvested and washed with PBS (phosphate buffered saline), and then 1 ml of 10 mM Tris-HCl buffer (pH 7.4), containing 2% SDS (sodium dodecyl sulfate) and 20 mM DTT (dithiothreitol), was added to the cells. The cell solution was sonicated, boiled and centrifuged, and the resulting precipitate was suspended in 1 ml of PBS and measured for absorbance at 340 nm. Meanwhile, a portion of the solution after the sonication was taken and measured for its protein content, and the measured value was used as a standard for evaluating the degree of cell differentiation. […] Each of the measurement values was calculated relative to 100 for the negative control (low calcium concentration), and the results of the calculation are shown in Table 6 below.

The test system of a further assay is transglutaminase. Nature of the assay: Expression of transglutaminase in human keratinocytes. It is filed as cell-based. The conditions noted are these: Ca^2+ 1.2 mM (positive control); relative to 100 for low calcium (0.03 mM) control. Here is the method:
Human skin cells were placed in a 96-well plate at a concentration of 5×10^4 cells/well and attached to the plate for 24 hours. The attached skin cells were treated with the test material, and after 2 days, the medium was removed, and the cells were stored in a refrigerator at […]. The cells were frozen and thawed twice, disrupted and treated with acetone:ethanol (1:1, v/v), stored at −20° C. The treated cells were left to stand at 4° C. for 30 minutes to immobilize the cells. Then, the cells were left to stand at room temperature to evaporate the organic solvent and were blocked with 1% bovine serum albumin. The blocked cells were treated with transglutaminase antibody (primary antibody) and HRP anti-mouse antibody (secondary antibody), and the color development of the cells was carried out by the addition of OPD (o-phenyldiamine). The expression level of transglutaminase in the cells was measured by measuring the absorbance at 490 nm, and the correction was carried out by measuring the background at 630 nm. A low calcium (0.03 mM)-treated group and a high calcium (1.2 mM)-treated group were used as a negative control group and a positive control group, respectively. Each of the measurement values was calculated relative to 100 for the negative control (low calcium concentration), and the results of the calculation are shown in Table 7 below.

A further assay has as its system type I procollagen. The experiment in a line: Type I procollagen assay (ELISA) in human normal fibroblasts. The conditions noted are these: 10 ng/Ml; positive control set to 100. It is filed as cell-based. Here is the method: Human normal fibroblasts were cultured in a 12-well culture plate at a concentration of 10^5 cells/well, and then the medium was replaced with each of media containing 1 ppm, 10 ppm and 50 ppm of the Chamaecyparis obtusa polysaccharide obtained in Preparation Example 1. As a positive control, TGF-β (Human Transforming Growth Factor-β1, Roche Co.) was used. At 3 days of culture, the cells were harvested, and the amount of type I procollagen produced in the cells was measured by an ELISA assay. Each of the measurement values was calculated relative to 0 for a control containing no Chamaecyparis obtusa polysaccharide and 100 for the positive control, and the results of the calculation are shown in Table 1 below.

For a further assay, the system named is human skin. The experiment in a line: Whitening effect on UVB-darkened human skin (colorimeter). It is filed as in vivo. The conditions noted are these: UVB-darkened upper arm; 10 weeks of application; solvent control 0.51 ± 0.13. As for the experimental part: In order to examine the whitening effect of the Chamaecyparis obtusa polysaccharide of the present invention on the human skin, the following test was carried out. First, on 12 healthy men as subjects, a 1.5-cm perforated opaque tape was attached to the upper arm portion of the subjects, and then the attached portion was radiated with UVB at a dose about 1.5-2 times the minimal erythema dose of each subject to induce skin darkening.
The color of the skin was measured with a colorimeter CR2002 (Japan, Minolta). Then, the difference (ΔL*) in skin color between the time point of initiation of application and the time point of completion of application (after 10 weeks) of each test material was calculated according to the following equation 3, and the results of the calculation are shown in Table 5 below.
Meanwhile, the skin whitening effect is evaluated by measuring the ΔL* value between the sample-applied portion and the control portion. […] Difference (ΔL*) skin color=L*value at the time of completion of application−L*value at the time of initiation of application [Formula 3]

For assay [2], the system named is MMP-1 (matrix metalloproteinase I). The experiment in a line: Inhibition of UV-B-induced MMP-1 biosynthesis in human normal fibroblasts (ELISA). It is filed as cell-based. The conditions noted are these: irradiated with UV-B 40 mJ/cm^2; 10 μM; 2 days; non-irradiated control 100, UV alone 152. Here is the method:
Human normal fibroblasts were cultured in a 12-well culture plate at a concentration of 10^5 cells/well, and then irradiated with 40 mJ/cm^2 of UV-B, after which the medium was replaced with a medium containing each of 1 ppm, 10 ppm and 50 ppm of the Chamaecyparis obtusa polysaccharide obtained in Preparation Example 1. At 2 days of culture, the cells were harvested, and the amount of MMP-1 (matrix metalloproteinase I) produced in the cells was measured by an ELISA assay. As a positive control, retinoic acid (RA, Sigma, USA) was used. Each of the measurement values was calculated relative to […] for a control containing no Chamaecyparis obtusa polysaccharide and which was not irradiated with UV-B. The results of the calculation are shown in Table 2 below.
For orientation: ELISA stands for enzyme-linked immunosorbent assay.

Assay [3] concerns C57BL/6 mouse melanocytes (Mel-Ab cells). The experiment in a line: Melanin production inhibitory effect using mouse melanocytes. It is filed as cell-based. The conditions noted are these: 72 h, 3 days. As for the experimental part: Mouse melanocytes were used to examine the melanin production inhibitory effect of the Chamaecyparis obtusa polysaccharide of the present invention. First, C57BL/6 mouse melanocytes (Mel-Ab cells) (Dooley, T. P. et al, Skin pharmacol, 7, pp 188-200) were cultured in DMEM (Dulbeccos modified Eagles media), containing 10% fetal bovine serum, 100 nM 2-O-tetradecanoyphorbol-13-acetate and 1 nM cholera toxin, in conditions of 37° C. and 5% CO2. The cultured Mel-Ab cells were detached with 0.25% trypsin-EDTA and cultured in a 24-well culture plate at a concentration of 10^5 cells/well. Then, from 2 days of culture, each of 10 ppm, 50 ppm and 100 ppm of the Chamaecyparis obtusa polysaccharide was continuously added thereto and cultured for 3 days. Herein, arbutin was used as a positive control. Then, the media were removed, and the cells were washed with PBS and lysed with 1N sodium hydroxide. The lysed cells were measured for absorbance at 400 nm, and based on the measured absorbance, the inhibition (%) of melanin production was calculated according to the following equation 2. Inhibition (%) of melanin production=100−(absorbance of each test material/absorbance of control×100) [Equation 2]

`COc1ccc2c(c1)c(CC(=O)O)c(C)n2C(=O)c1ccc(Cl)cc1` [Indomethacin, indomethacine]: the “Inhibition (%) (mean)” value in assay [1] is 92%. In assay [1] (untreated 6.64 ± 0.65, TPA alone 13.21 ± 2.49), the “Ear weight (mean ± SD)” value amounted to 7.20 ± 0.57.
As for `[Ca+2]` [Ca^2+, calcium], the “Differentiation (%) of keratinocytes” value with human keratinocytes worked out at 215%. Besides, the “Expression (%) of transglutaminase” value in the assay on transglutaminase stood at 138%.
For the compound “TGF-β: Human Transforming Growth Factor-β1, Roche Co.; positive control”, in the assay on type I procollagen, the “Type I procollagen biosynthesis (%)” value amounted to 100%.
In the case of `Oc1ccc(O)cc1` [Hydroquinone, hydroquinone], the “Difference (ΔL*) in skin color” value in the assay with human skin is listed as 1.89 ± 0.15.
In the case of `CC1=C(/C=C/C(C)=C/C=C/C(C)=C/C(=O)O)C(C)(C)CCC1` [RA, retinoic acid], the “MMP-1 biosynthesis (%)” value in assay [2] is on record as 45%.
As usually defined, the inhibition is the share of the control response that was lost under treatment. Lower therefore signals little suppression. In assay [3], `OC[C@H]1O[C@@H](Oc2ccc(O)cc2)[C@H](O)[C@@H](O)[C@@H]1O` [Arbutin, arbutin] returned an inhibition at 100 ppm of 52%.
